Measured values taken from patent US20090030086A1, “ANTIMICROBIAL AGENTS” (priority 2005, published 2009).
Converted amounts (≈) assume the structure as drawn.

Legend:
S. aureus ATCC 29213 = test: MBC assay; format: cell-based, Staphylococcus aureus
Procedure, shortened: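 Organism grown aerobically on Mueller-Hinton agar/broth (pH 7.2) for 24 hours at 37° C. After the MIC step, samples plated on non-selective agar under those conditions; lowest concentration with no visible growth taken as the MBC.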

P. acnes NCTC 737 [1] = test: MBC assay; format: cell-based, Propionibacterium acnes
Procedure, shortened: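 Cultures were kept on Wilkins-Chalgren Anaerobe agar and broth (pH 6.0), anaerobic, 37 °C, 72 h. The MBC, read as the minimum lethal concentration, came from sub-culturing post-MIC samples onto non-selective agar under those conditions and visually scoring growth.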

P. acnes NCTC 737 [2] = test: Disc diffusion assay (DDA); format: cell-based, Propionibacterium acnes; conditions: Cutibacterium acnes, NCTC737; P. acnes NCTC 737; unsupplemented agar; 200 μg per disc (2,6-dimethoxy-p-benzoquinone 100 μg); read-out: DDA (diameter of zone of inhibition)
P. granulosum PPR-006 [3] = test: Disc diffusion assay (DDA); format: cell-based; conditions: resistance MLS, 200 μg per disc
Protocol: (§1) The Propionibacterium spp organisms were cultured and maintained on Wilkins-Chalgren Anaerobe Medium (agar and broth) at pH 6.0; cultures were incubated anaerobically at 37° C. for 72 hours.
(§2) A sterile paper disc was impregnated with a sample of the test compound and a minimum of 30 minutes allowed for the solvents to evaporate as far as possible. The disc was then placed on an agar plate onto which the test micro-organism had been inoculated. The plate was then incubated under the conditions described above, following which it was examined visually for signs of bacterial growth. If the test compound had antimicrobial activity, a circular zone of no growth would be obtained around the disc. The diameter of this zone of “inhibition” was measured using a ProtoCOL™ automated zone sizer (Synbiosis, Cambridge, UK). In general, a greater diameter and/or area of the zone of inhibition indicates a greater antimicrobial activity in the relevant test compound, although other factors such as test compound mobility through the agar gel may also influence the result.
(§3) The area of the zone of inhibition was calculated from the measured zone diameter (D) using the formula π(D/2)^2.
(§4) For the DDA assays, 200 μg of TBHQ was loaded onto each disc. The solvent used for the TBHQ was ethanol.

P. granulosum PRP-005 = test: Disc diffusion assay (DDA); format: cell-based; conditions: resistance MLSK, 200 μg per disc
Protocol: as §1, §2, §3, §4

P. granulosum PRP-043 = test: Disc diffusion assay (DDA); format: cell-based; conditions: resistance MLS, 200 μg per disc
Protocol: as §1, §2, §3, §4

P. granulosum PRP-044 = test: Disc diffusion assay (DDA); format: cell-based; conditions: resistance MLS, 200 μg per disc
Protocol: as §1, §2, §3, §4

P. granulosum PRP-055 = test: Disc diffusion assay (DDA); format: cell-based; conditions: resistance None, 200 μg per disc
Protocol: as §1, §2, §3, §4

P. granulosum PPR-006 [4] = test: MIC assay; format: cell-based
Protocol: as §1
This is a standard international method for quantitatively assessing the antimicrobial activity of a compound in a liquid medium. The method used a 96-well microtitre plate, capable of holding about 200 μl of liquid per well. […] The culture media were as described above for the relevant test organisms.
The wells were inoculated with a liquid suspension of freshly grown micro-organism and incubated under the conditions described above. After incubation, the microtitre plate was examined visually (with the aid of a light box) for cloudiness in each well, which would indicate microbial growth. The MIC value was recorded as the lowest concentration of test compound required to inhibit microbial growth, i.e., the lowest concentration for which the liquid in the well remained clear.
The assays were conducted in duplicate and included both negative (culture medium only) and positive (culture medium, diluting solvent and inoculum) controls.
The activity of TBHQ was tested against other Propionibacterium spp strains, including some with known antibiotic resistance. MIC, MBC and DDA assays were carried out as described above for each of the strains.

H. influenzae ATCC 49247 = test: Disc diffusion assay (DDA); format: cell-based, Haemophilus influenzae; conditions: 200 μg per disc
Protocol: The H. influenzae strain was cultured and maintained on Haemophilus Test Medium (HTM) agar/broth (the composition of which is as described in NCCLS M7-A6 Vol. 23 No. 2); cultures were incubated in a CO2 atmosphere at 37° C. for 24 hours.
as §2, §3
The activity of TBHQ against three other bacterial strains was investigated using MIC, MBC and DDA assays as described above. […]

S. pyogenes ATCC 12344 [5] = test: MIC assay; format: cell-based; conditions: Streptococcus pyogenes, ATCC12344
Text: 3. Streptococcus pyogenes ATCC 12344—this is a Gram-positive […] bacterium; it is a member of the group A β-haemolytic streptococci which are occasional upper respiratory tract commensals in humans (10% of children, commensal carriage uncommon in adults, its main occurrence is as the agent of tonsillitis). It is clinically significant in the context of skin infections, being a causative agent of cellulitis, necrotising fasciitis, impetigo, erysipelas, wound infections and scarlet fever. Penicillin and erythromycin are the standard treatments for infections involving S. pyogenes. […] S. pyogenes is also a major cause of upper respiratory tract infections. […]
This is a standard international method for quantitatively assessing the antimicrobial activity of a compound in a liquid medium. […]
The wells were inoculated with a liquid suspension of freshly grown micro-organism and incubated under the conditions described above. […] The MIC value was recorded as the lowest concentration of test compound required to inhibit microbial growth, i.e., the lowest concentration for which the liquid in the well remained clear. […]

S. pyogenes ATCC 12344 [6] = test: MBC assay; format: cell-based, Streptococcus pyogenes
Protocol: (§5) The S. pyogenes strain was cultured and maintained on Mueller-Hinton agar with 5% v/v defibrinated horse blood, and grown in Mueller-Hinton broth supplemented with 5% lysed horse blood (lysed horse blood was prepared as described in the NCCLS M7-A6 Vol. 23 No. 2); cultures were incubated aerobically at 37° C. for 24 hours.
This assay, normally carried out after an MIC assay, determines the minimum concentration of a compound that is lethal to the micro-organism being tested.
These samples were then individually sub-cultured on non-selective agar medium, under the incubation conditions described above. Following incubation they were examined visually for bacterial growth.
The activity of TBHQ against three other bacterial strains was investigated using MIC, MBC and DDA assays as described above. For the DDA assays, 200 μg of TBHQ was loaded onto each disc, using ethanol as the solvent.

S. pyogenes ATCC 12344 [7] = test: Disc diffusion assay (DDA); format: cell-based, Streptococcus pyogenes; conditions: 200 μg per disc
Protocol: as §5, §2
The area of the zone of inhibition was calculated from the measured zone diameter (D) using the formula π(D/2)^2. […]

Q: For `CC(C)(C)c1cc(O)ccc1O` [TBHQ, 2-t-butyl hydroquinone], which MIC/MBC ratio (S. aureus ATCC 29213) is on record?
A: 1

Q: And the MIC/MBC ratio (P. acnes NCTC 737 [1]; P. acnes NCTC 737)?
A: 0.5

Q: And the MBC (P. acnes NCTC 737 [1]; P. acnes NCTC 737 (Table 6), resistance None)?
A: 15.6 µg/mL (≈ 93.9 µM)

Q: And the zone of inhibition at 200 µg/disc (P. acnes NCTC 737 [2])?
A: 9.95 mm

Q: What about the DDA (P. granulosum PPR-006 [3]) of the same compound?
A: 20.00 mm

Q: What about the DDA (P. granulosum PRP-005) of the same compound?
A: 0.00 mm

Q: And the DDA (P. granulosum PRP-043)?
A: 10.56 mm

Q: What about the DDA (P. granulosum PRP-044) of the same compound?
A: 10.70 mm

Q: And the DDA (P. granulosum PRP-055)?
A: 13.07 mm

Q: And the MIC (P. granulosum PPR-006 [4])?
A: 7.8 µg/mL (≈ 46.9 µM)

Q: What about the DDA (H. influenzae ATCC 49247) of the same compound?
A: 36.33 mm

Q: And the MIC (S. pyogenes ATCC 12344 [5])?
A: 62.5 to 125 µg/mL (≈ 376 to 752 µM)

Q: What about the MIC/MBC ratio (S. pyogenes ATCC 12344 [6]) of the same compound?
A: 1

Q: And the MBC (S. pyogenes ATCC 12344 [6]; Streptococcus pyogenes, ATCC12344)?
A: 62.5 to 125 µg/mL (≈ 376 to 752 µM)

Q: And the DDA (S. pyogenes ATCC 12344 [7])?
A: 50.67 mm
